Laboratory results reported in ChEMBL document CHEMBL1201862, “PubChem BioAssay data set” (2004).
Active and inactive are the calls of the source.

Key:
Fatty acid synthase [1] = biological target: T1, Fatty acid synthase (Homo sapiens, UniProt P49327); assay: inhibition of human FAS-TE enzyme activity – biochemical, endpoint fluorescence intensity, uHTS hits, dose response (AID 624327); type: functional;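 note: fluorescence from hydrolysis of an O-methyl fluorescein acyl ester substrate by the enzyme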
T1 sequence (P49327 whole entry): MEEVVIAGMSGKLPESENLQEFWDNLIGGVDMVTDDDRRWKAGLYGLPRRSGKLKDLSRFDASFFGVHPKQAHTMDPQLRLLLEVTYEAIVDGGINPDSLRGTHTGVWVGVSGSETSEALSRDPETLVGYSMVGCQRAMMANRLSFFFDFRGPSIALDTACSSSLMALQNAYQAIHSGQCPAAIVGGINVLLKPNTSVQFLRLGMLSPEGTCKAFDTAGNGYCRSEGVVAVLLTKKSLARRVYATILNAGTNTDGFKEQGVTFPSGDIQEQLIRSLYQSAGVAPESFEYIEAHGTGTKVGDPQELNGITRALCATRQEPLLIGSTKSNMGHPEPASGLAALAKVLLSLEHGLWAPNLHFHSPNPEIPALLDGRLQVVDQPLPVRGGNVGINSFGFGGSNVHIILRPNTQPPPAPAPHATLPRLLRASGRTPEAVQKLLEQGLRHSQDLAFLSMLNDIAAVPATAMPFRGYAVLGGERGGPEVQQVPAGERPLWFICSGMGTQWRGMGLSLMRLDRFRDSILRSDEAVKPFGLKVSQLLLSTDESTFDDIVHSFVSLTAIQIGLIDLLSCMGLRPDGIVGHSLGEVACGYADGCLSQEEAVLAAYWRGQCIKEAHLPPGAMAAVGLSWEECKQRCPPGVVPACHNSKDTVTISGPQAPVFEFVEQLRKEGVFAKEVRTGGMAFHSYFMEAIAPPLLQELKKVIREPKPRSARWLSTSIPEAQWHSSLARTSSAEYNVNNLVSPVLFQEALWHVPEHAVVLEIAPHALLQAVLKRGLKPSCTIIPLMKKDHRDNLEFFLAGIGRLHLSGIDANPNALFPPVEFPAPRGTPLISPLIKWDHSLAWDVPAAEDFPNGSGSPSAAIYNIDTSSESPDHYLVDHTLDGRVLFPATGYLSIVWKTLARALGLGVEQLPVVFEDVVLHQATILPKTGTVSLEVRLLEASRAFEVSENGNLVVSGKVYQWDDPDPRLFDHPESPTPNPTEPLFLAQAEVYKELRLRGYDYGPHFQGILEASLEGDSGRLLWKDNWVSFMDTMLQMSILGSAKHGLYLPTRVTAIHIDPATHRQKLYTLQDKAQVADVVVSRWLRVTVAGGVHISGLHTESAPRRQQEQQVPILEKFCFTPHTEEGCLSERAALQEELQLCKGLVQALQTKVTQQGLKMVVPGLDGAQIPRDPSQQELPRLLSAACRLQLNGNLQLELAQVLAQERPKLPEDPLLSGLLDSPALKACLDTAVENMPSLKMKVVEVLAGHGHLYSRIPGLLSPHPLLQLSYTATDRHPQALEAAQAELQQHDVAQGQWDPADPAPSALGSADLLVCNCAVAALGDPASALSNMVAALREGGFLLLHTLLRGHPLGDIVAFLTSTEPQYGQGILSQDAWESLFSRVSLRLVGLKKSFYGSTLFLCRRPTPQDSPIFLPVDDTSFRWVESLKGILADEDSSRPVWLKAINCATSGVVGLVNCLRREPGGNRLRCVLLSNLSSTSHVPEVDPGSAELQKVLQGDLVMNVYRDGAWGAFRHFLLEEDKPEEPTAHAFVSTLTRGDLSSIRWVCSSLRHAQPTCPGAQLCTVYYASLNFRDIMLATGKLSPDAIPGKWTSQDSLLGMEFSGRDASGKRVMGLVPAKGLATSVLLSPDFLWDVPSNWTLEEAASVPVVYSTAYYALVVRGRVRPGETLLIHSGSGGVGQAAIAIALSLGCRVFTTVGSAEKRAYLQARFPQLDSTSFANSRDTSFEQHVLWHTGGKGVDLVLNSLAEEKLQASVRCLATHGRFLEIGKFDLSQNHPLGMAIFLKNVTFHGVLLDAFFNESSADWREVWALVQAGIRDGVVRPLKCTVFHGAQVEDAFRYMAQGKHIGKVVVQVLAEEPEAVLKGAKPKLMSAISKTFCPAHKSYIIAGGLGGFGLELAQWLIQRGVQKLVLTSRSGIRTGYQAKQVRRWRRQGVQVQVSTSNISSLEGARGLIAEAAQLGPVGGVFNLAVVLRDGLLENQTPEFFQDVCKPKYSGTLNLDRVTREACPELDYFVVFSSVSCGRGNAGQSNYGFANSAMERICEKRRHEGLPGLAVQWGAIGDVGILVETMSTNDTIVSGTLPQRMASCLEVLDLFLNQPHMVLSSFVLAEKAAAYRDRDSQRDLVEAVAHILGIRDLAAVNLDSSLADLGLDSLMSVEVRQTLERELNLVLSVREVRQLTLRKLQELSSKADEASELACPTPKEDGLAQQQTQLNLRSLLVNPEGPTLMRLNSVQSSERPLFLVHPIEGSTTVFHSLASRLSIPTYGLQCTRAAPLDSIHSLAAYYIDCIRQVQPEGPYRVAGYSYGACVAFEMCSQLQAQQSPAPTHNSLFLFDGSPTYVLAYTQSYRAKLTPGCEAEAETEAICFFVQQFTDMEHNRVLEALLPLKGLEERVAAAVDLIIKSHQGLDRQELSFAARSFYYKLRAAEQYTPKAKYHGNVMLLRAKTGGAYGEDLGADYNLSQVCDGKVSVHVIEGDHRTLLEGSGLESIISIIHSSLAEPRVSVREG

Fatty acid synthase [2] = biological target: T1, Fatty acid synthase; assay: inhibition of human FAS-TE enzyme activity – biochemical, kinetic fluorescence intensity, dose response (AID 624326); type: functional;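 note: rate of fluorescence rise from hydrolysis of a fluorogenic O-methyl fluorescein ester substrate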
[3] = HIV-1 AD8 envelope cell-cell fusion blockers – cherry-pick, dose response (AID 652062); type: functional, cell-based;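 note: luciferase signal from cell-cell fusion driven by HIV-1 clade B AD8 Env; potency is for inhibitors of fusion seen as a drop in luminescence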
Nonstructural protein 1 = Nonstructural protein 1 (Influenza A virus, UniProt Q194T2); type: functional, Influenza A virus (A/California/07/2009(H1N1))
Sequence of Nonstructural protein 1 (Q194T2 whole entry): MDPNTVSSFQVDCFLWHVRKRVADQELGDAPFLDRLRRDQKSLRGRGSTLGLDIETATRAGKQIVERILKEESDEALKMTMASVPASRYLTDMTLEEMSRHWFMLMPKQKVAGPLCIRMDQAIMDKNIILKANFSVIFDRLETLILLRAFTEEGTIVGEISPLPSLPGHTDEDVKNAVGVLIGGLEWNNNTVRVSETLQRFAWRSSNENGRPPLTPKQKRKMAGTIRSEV

[4] = tested on: Streptococcus sp. 'group A'; assay: Streptococcus pyogenes SK(-)GAS viability under kanamycin – luminescence, BacTiterGlo, confirmation, counter-screen for streptokinase expression inhibitor project, dose response (AID 1900); type: functional, organism-based
Streptococcus = assay: GAS UMAA2166 growth inhibition – luminescence, BacTiterGlo, counter-screen for streptokinase expression inhibitor project, dose response (AID 1915); type: functional, organism-based;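 note: potency for reduction of bacterial viability or growth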
[5] = blockers of HIV-1 ZM109 envelope-driven cell-cell fusion – HeLa effector, CEM target cells, luciferase, cherry-pick, dose response (AID 652058); type: functional, cell-based;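 note: luciferase signal from HIV-1 Env mediated cell-cell fusion of effector and target cells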
[6] = blockers of HIV-1 envelope-mediated cell-cell fusion – cherry-pick, dose response (AID 652057); type: functional, cell-based
[7] = P. falciparum Dd2 growth inhibitors, dose response, SYBR Green, cherry-picked samples (AID 1159567); type: functional, cell-based
[8] = biological target: Induced myeloid leukemia cell differentiation protein Mcl-1 (Homo sapiens, UniProt Q07820); type: functional
Sequence of Induced myeloid leukemia cell differentiation protein Mcl-1 (Q07820 whole entry): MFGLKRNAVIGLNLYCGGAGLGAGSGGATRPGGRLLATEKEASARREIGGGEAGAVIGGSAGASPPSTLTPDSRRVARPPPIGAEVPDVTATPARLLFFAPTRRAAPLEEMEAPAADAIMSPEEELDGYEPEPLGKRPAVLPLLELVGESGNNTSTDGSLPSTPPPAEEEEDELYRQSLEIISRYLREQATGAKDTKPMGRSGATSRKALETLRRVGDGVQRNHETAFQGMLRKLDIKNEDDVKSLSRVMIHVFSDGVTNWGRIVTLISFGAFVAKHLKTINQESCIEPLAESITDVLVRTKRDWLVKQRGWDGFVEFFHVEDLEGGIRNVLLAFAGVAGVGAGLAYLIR

Large T antigen = Large T antigen (Simian virus 40, UniProt P03070); type: functional, Betapolyomavirus macacae;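 note: Confirmatory-stage PubChem screen for compounds that inhibit SV40 T antigen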
Sequence of Large T antigen (P03070 whole entry, the tested form may be a part): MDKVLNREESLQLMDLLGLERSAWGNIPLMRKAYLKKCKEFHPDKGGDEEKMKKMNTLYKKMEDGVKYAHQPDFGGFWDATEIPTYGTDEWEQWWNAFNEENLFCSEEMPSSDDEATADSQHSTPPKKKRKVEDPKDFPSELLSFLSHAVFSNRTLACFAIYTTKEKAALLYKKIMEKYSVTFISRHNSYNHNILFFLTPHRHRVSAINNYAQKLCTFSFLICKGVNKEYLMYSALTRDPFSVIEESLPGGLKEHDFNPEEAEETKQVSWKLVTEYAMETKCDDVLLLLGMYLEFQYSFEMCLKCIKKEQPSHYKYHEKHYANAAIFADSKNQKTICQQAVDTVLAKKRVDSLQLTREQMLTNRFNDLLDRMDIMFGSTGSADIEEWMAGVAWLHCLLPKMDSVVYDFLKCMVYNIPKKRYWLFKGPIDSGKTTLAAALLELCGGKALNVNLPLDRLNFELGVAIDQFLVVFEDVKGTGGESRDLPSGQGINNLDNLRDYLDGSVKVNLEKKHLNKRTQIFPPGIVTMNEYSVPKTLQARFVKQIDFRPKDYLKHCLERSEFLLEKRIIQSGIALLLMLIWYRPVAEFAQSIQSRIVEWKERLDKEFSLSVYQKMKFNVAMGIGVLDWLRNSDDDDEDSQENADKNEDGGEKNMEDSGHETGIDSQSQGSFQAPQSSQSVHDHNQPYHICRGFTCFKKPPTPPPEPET

[9] = off-target signal loss in HeLa-CEM21 co-culture – HeLa F-luc CTL cells, cherry-picked, counter-screen for HIV-1 Env fusion inhibitor project, dose response (AID 652040); type: functional, cell-based;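 note: potency for signal decrease marking cytotoxic or nonspecific inhibition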
[10] = luciferase reporter signal suppression in cells – H4 neuroglioma cells, luminescence, dose response (AID 1990); type: functional, cell-based
[11] = alpha-synuclein stem-loop luciferase translation blockers – H4 neuroglioma cells, luminescence, confirmation (AID 1988); type: functional, cell-based
[12] = Luminescence Cell-Based Dose Response HTS to Identify Inhibitors of 5'UTR Stem-Loop Driven Prion Protein mRNA Translation in H4 Neuroglioblastoma Cells. [Related pubchem assays: 1827 (Project Summary), 1813 (Primary HTS)]; type: functional

For `CCCn1c(SCC(=O)Nc2ccccc2-c2ccccc2)nnc1-c1ccoc1C`, the IC50 (Fatty acid synthase [1]) was 8.34 µM (active) and the IC50 (Fatty acid synthase [2]) was 7.42 µM (active).
With `COc1ccc(N2CCN(C(=O)C3CCC(Cn4c(=S)[nH]c5ccccc5c4=O)CC3)CC2)cc1` (stereo unspecified) the AC50 [3] was 10 µM (active) and the IC50 (Nonstructural protein 1) was > 100 µM (active).
For `N#Cc1c(N)[nH]c(C(=O)c2ccccc2)c1-c1ccc(Cl)cc1`, the IC50 (Fatty acid synthase [1]) was 7.39 µM (active) and the IC50 (Fatty acid synthase [2]) was 13.3 µM (active).
For `Cc1c(N=N/C(C#N)=C(\O)c2ccccc2)c(=O)n(-c2ccccc2)n1C`, the EC50 [4] was 2.43 µM (active), the EC50 (Streptococcus) was 7.26 µM (active) and the IC50 (Nonstructural protein 1) was 8.08 µM (active).
For `Cc1ccc(S(=O)(=O)N(C)C[C@@H]2Oc3ccc(NC(=O)C4CCCCC4)cc3CC(=O)N([C@H](C)CO)C[C@@H]2C)cc1`, the AC50 [5] was 0.574 µM (active), the AC50 [3] was 2.14 µM (active) and the AC50 [6] was < 0.26 µM (active).
In the case of `CCS(=O)(=O)N1CCC2(CC1)CN(Cc1ccc3c(c1)OCO3)[C@@H](CO)c1[nH]c3cc(OC)ccc3c12`, the AC50 [7] is reported as 8.27 µM (active).
With `C[C@H]1CN([C@@H](C)CO)C(=O)c2c(c3ccccc3n2C)-c2ccccc2CO[C@H]1CN(C)C(=O)C1CC1` the AC50 [5] was 0.462 µM (active), the AC50 [3] was 1.18 µM (active) and the AC50 [6] was 0.362 µM (active).
For `Cc1ccc(Cn2c(C)nc3ccc([N+](=O)[O-])cc3c2=O)cc1`, the IC50 (Fatty acid synthase [1]) was 4.8 µM (active) and the IC50 (Fatty acid synthase [2]) was 5.2 µM (active).
For `Cc1cc(C)c(NC(=O)COC(=O)c2cc([N+](=O)[O-])ccc2N2CCOCC2)c(C)c1`, the IC50 (Fatty acid synthase [1]) was 6.16 µM (active) and the IC50 (Fatty acid synthase [2]) was 10.8 µM (active).
In the case of `CSC1=N/C(=C\c2ccccc2F)C(=O)S1`, the IC50 [8] is reported as 24.7 µM (not active).
In the case of `COc1cc(/C=C(\C#N)c2ccccn2)cc(OC)c1O`, the IC50 (Large T antigen) is reported as 14.5 µM (active).
For `O=C(/C=C/c1cccc([N+](=O)[O-])c1)NCCSCc1ccc(Cl)cc1Cl`, the IC50 (Fatty acid synthase [1]) was 10.4 µM (active) and the IC50 (Fatty acid synthase [2]) was 9.88 µM (active).
With `Cc1ccc2cc(C#N)c(NCCNC(=O)C3CCC3)nc2c1C` the AC50 [9] was 11 µM (active), the AC50 [5] was 9.78 µM (active) and the AC50 [3] was 8.62 µM (active). The AC50 [6] was 9.91 µM (active).
For `CCOC(=O)[C@@H]1[C@H]2COc3ccc(Br)cc3[C@@H]2N2C(=O)N(c3ccc(F)cc3)C(=O)[C@@]12C`, the AC50 [9] was 3.77 µM (active), the AC50 [5] was 5.78 µM (active) and the AC50 [3] was 4.5 µM (active). For the same molecule, the AC50 [6] was 1.72 µM (active).
In the case of `O=C(CSc1n[nH]c(-c2ccccn2)n1)Nc1ccccc1`, the EC50 [10] is reported as > 120 µM (not active), the EC50 [11] is reported as > 120 µM (not active) and the IC50 (Nonstructural protein 1) is reported as 5.02 µM (active). For the same molecule, the EC50 [12] was > 120 µM (not active).
